Source: the supplement of paper PMC10307832

Assays:
Experiment in all cases: relative viability (nuclei count vs DMSO), 5 days (fraction); higher = more cells survive
MLN4924 + Alpelisib = compound: NS(=O)(=O)OC[C@@H]1C[C@@H](n2ccc3c(N[C@H]4CCc5ccccc54)ncnc32)C[C@@H]1O [MLN4924] + Cc1nc(NC(=O)N2CCC[C@H]2C(N)=O)sc1-c1ccnc(C(C)(C)C(F)(F)F)c1 [Alpelisib] (partner 2 µM)
Summary of the method: (§1)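 A single step with final 0.05% Triton X-100, 1% formaldehyde and 1 ug/ml Hoechst fixed the cells and stained nuclei 5 days after treatment. Lung cancer cell lines in 1536-well plates had been treated by pin tool the day after seeding with one drug alone or a fixed anchor-drug dose plus five library-drug doses (not always all listed) in √10 steps, and nuclei were counted on 4× images. Relative viability is the ratio of nuclei in treated wells to nuclei in vehicle wells, taken as the median of duplicate plates.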

MLN4924 + OSI-027 = compound: NS(=O)(=O)OC[C@@H]1C[C@@H](n2ccc3c(N[C@H]4CCc5ccccc54)ncnc32)C[C@@H]1O [MLN4924] + COc1cccc2cc(-c3nc([C@H]4CC[C@H](C(=O)O)CC4)n4ncnc(N)c34)[nH]c12 [OSI-027] (partner 0.5 µM)
Summary of the method: as §1

MLN4924 + Crizotinib = compound: NS(=O)(=O)OC[C@@H]1C[C@@H](n2ccc3c(N[C@H]4CCc5ccccc54)ncnc32)C[C@@H]1O [MLN4924] + C[C@@H](Oc1cc(-c2cnn(C3CCNCC3)c2)cnc1N)c1c(Cl)ccc(F)c1Cl [Crizotinib] (partner 1 µM)
Summary of the method: as §1

MLN4924 + Foretinib = compound: NS(=O)(=O)OC[C@@H]1C[C@@H](n2ccc3c(N[C@H]4CCc5ccccc54)ncnc32)C[C@@H]1O [MLN4924] + COc1cc2c(Oc3ccc(NC(=O)C4(C(=O)Nc5ccc(F)cc5)CC4)cc3F)ccnc2cc1OCCCN1CCOCC1 [Foretinib] (partner 0.25 µM)
Summary of the method: as §1

Cell Line	relative viability (MLN4924 + Alpelisib; first compound 0.04 µM)	relative viability (MLN4924 + Alpelisib; first compound 0.1265 µM)	relative viability (MLN4924 + Alpelisib; first compound 0.4 µM)	relative viability (MLN4924 + Alpelisib; first compound 1.265 µM)	relative viability (MLN4924 + Alpelisib; first compound 4 µM)	relative viability (MLN4924 + OSI-027; first compound 0.04 µM)	relative viability (MLN4924 + OSI-027; first compound 0.1265 µM)	relative viability (MLN4924 + OSI-027; first compound 0.4 µM)	relative viability (MLN4924 + OSI-027; first compound 1.265 µM)	relative viability (MLN4924 + OSI-027; first compound 4 µM)	relative viability (MLN4924 + Crizotinib; first compound 0.04 µM)	relative viability (MLN4924 + Crizotinib; first compound 0.1265 µM)	relative viability (MLN4924 + Crizotinib; first compound 0.4 µM)	relative viability (MLN4924 + Crizotinib; first compound 1.265 µM)	relative viability (MLN4924 + Crizotinib; first compound 4 µM)	relative viability (MLN4924 + Foretinib; first compound 0.04 µM)	relative viability (MLN4924 + Foretinib; first compound 0.1265 µM)	relative viability (MLN4924 + Foretinib; first compound 0.4 µM)	relative viability (MLN4924 + Foretinib; first compound 1.265 µM)	relative viability (MLN4924 + Foretinib; first compound 4 µM)
LXF-289	0.814	0.715	0.452	0.231	0.142	0.833	0.713	0.569	0.165	0.13	0.605	0.566	0.508	0.205	0.126	0.846	0.564	0.565	0.188	0.0965
NCI-H23	0.611	0.5	0.28	0.149	0.155	0.514	0.497	0.244	0.136	0.177	0.579	0.481	0.301	0.122	0.139	0.968	0.839	0.767	0.285	0.184
NCI-H322M	0.783	0.786	0.713	0.259	0.321	0.622	0.588	0.339	0.272	0.329	0.85	0.779	0.834	0.262	0.399	1.12	1.22	0.801	0.284	0.357
NCI-H358	1.01	0.899	0.34	0.189	0.162	0.968	0.649	0.492	0.0759	0.118	0.69	0.506	0.285	0.168	0.156	0.781	0.694	0.397	0.0949	0.094
NCI-H441	0.549	0.526	0.296	0.123	0.168	0.596	0.613	0.258	0.139	0.193	0.866	0.693	0.361	0.158	0.169	0.923	0.79	0.515	0.238	0.183
NCI-H460	0.677	0.688	0.662	0.0819	0.0199	0.739	0.781	0.893	0.0922	0.0324	0.886	0.929	0.689	0.0391	0.0185	1.01	1.09	0.855	0.297	0.0485
NCI-H520	0.535	0.432	0.308	0.22	0.181	0.294	0.295	0.363	0.202	0.191	0.431	0.491	0.338	0.168	0.151	0.732	0.502	0.409	0.305	0.205
NCI-H596	0.468	0.61	0.426	0.664	0.52	0.669	0.87		0.765	0.596	0.886	1.1	0.501	0.961	0.758	0.847	1.04		0.65	0.58
